From US6479435B1, “Diaryl ethers and processes for their preparation and herbicidal and desiccant compositions containing them” (ISK Americas Incorporated, priority 1997, dated 2002)

Assays:
Type in all cases: in vivo
[1] = test system: redroot pigweed (Amaranthus retroflexus, AMARE); test: Pre-emerge greenhouse herbicide test, phytotoxicity rating; settings: 14 days after application, rating scale 0-100
Summary of the method: (§1)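 Seeds sown in sandy loam one day before track-sprayer application of acetone solutions at 125–1000 g ai/ha (187 l/ha), then surface-watered to incorporate and bottom-watered. Injury scored visually at 14 days on a 0–100 scale (0 no damage, 100 complete death).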

[2] = test system: sicklepod (Cassia obtusifolia, CASOB); test: as above; settings: 14 days after application, rating scale 0-100
Summary of the method: as §1

[3] = test system: barnyardgrass (Echinochloa crusgalli, ECHCG); test: as above; settings: 14 days after application, rating scale 0-100
Summary of the method: as §1

[4] = test system: ivyleaf morningglory (Ipomoea hederacea, IPOHE); test: as above; settings: 14 days after application, rating scale 0-100
Summary of the method: as §1

[5] = test system: green foxtail (Setaria viridis, SETVI); test: as above; settings: 14 days after application, rating scale 0-100
Summary of the method: as §1

[6] = test system: Johnsongrass (Sorghum halepense, SORHA); test: as above; settings: 14 days after application, rating scale 0-100
Summary of the method: as §1

[7] = test system: common ragweed (Ambrosia artemisiifolia L., AMBEL); test: as above; settings: 14 days after application, rating scale 0-100
Summary of the method: as §1

[8] = test system: lambsquarters (Chenopodium album, CHEAL); test: as above; settings: 14 days after application, rating scale 0-100
Summary of the method: as §1

[9] = test system: large crabgrass (Digitaria sanguinalis, DIGSA); test: as above; settings: 14 days after application, rating scale 0-100
Summary of the method: as §1

[10] = test system: velvetleaf (Abutilon theophrasti, ABUTH); test: as above; settings: 14 days after application, rating scale 0-100
Summary of the method: as §1

[11] = test system: redroot pigweed (Amaranthus retroflexus, AMARE); test: Post-emerge greenhouse herbicide test, phytotoxicity rating; settings: 14 days after application
Summary of the method: (§2)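 Plants at the 2-3 leaf stage, sown 8-21 days earlier, were track-sprayed post-emergence with compound in acetone plus 0.25% v/v non-ionic surfactant at 63-1000 g ai/ha (187 l/ha). Damage was rated at 14 days on a 0-100 scale (0 none, 100 all plants dead), for both crop injury and weed control.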

[12] = test system: sicklepod (Cassia obtusifolia, CASOB); test: as above; settings: 14 days after application
Summary of the method: as §2

[13] = test system: barnyardgrass (Echinochloa crusgalli, ECHCG); test: as above; settings: 14 days after application
Summary of the method: as §2

[14] = test system: ivyleaf morningglory (Ipomoea hederacea, IPOHE); test: as above; settings: 14 days after application
Summary of the method: as §2

[15] = test system: green foxtail (Setaria viridis, SETVI); test: as above; settings: 14 days after application
Summary of the method: as §2

[16] = test system: Johnsongrass (Sorghum halepense, SORHA); test: as above; settings: 14 days after application
Summary of the method: as §2

[17] = test system: lambsquarters (Chenopodium album, CHEAL); test: as above; settings: 14 days after application
Summary of the method: as §2

[18] = test system: large crabgrass (Digitaria sanguinalis, DIGSA); test: as above; settings: 14 days after application
Summary of the method: as §2

[19] = test system: velvetleaf (Abutilon theophrasti, ABUTH); test: as above; settings: 14 days after application
Summary of the method: as §2

[20] = test system: field corn (Zea mays L., var. Dekalb 535, CORN); test: Pre-emerge greenhouse test, crop damage rating; settings: 14 days after application, rating scale 0-100
Summary of the method: as §1

[21] = test system: upland rice (Oryza sp., var.Tebonnet, RICE); test: Pre-emerge greenhouse test, crop damage rating; settings: 14 days after application, rating scale 0-100
Summary of the method: as §1

[22] = test system: field corn (Zea mays L., var. Dekalb 535, CORN); test: Post-emerge greenhouse test, crop damage rating; settings: 14 days after application
Summary of the method: as §2

[23] = test system: upland rice (Oryza sp., var.Tebonnet, RICE); test: Post-emerge greenhouse test, crop damage rating; settings: 14 days after application
Summary of the method: as §2

[24] = test system: common ragweed (Ambrosia artemisiifolia L., AMBEL); test: Post-emerge greenhouse herbicide test, phytotoxicity rating; settings: 14 days after application
Summary of the method: as §2

[25] = test system: soybean (Glycine max L., var. Pella 86, SOY); test: Post-emerge greenhouse test, crop damage rating; design: key to crop damage rating SOY: 0-100 scale: 0 = no damage, 100 = complete death of all plants; settings: 14 days after application
Summary of the method: as §2

[26] = test system: soybean (Glycine max L., var. Pella 86, SOY); test: Pre-emerge greenhouse test, crop damage rating; design: key to SOY crop damage rating: 0 = no damage, 100 = complete death of all plants; settings: 14 days after application, rating scale 0-100
Summary of the method: as §1

SMILES: CC(=O)Nc1ccc(Oc2cc(-n3c(=O)n4n(c3=S)CCCC4)c(F)cc2Cl)c(C(F)(F)F)c1 [Compound 8-16]
- phytotoxicity rating AMARE ([1]; 125 g ai/ha): 80
- AMARE phytotoxicity rating ([1]; Rate 500 g al/ha): 90
- phytotoxicity rating CASOB ([2]; 125 g ai/ha): 0
- CASOB phytotoxicity rating ([2]; Rate 500 g al/ha): 0
- phytotoxicity rating ECHCG ([3]; 125 g ai/ha): 0
- ECHCG phytotoxicity rating ([3]; Rate 500 g al/ha): 0
- phytotoxicity rating IPOHE ([4]; 125 g ai/ha): 0
- IPOHE phytotoxicity rating ([4]; Rate 500 g al/ha): 0
- phytotoxicity rating SETVI ([5]; 125 g ai/ha): 0
- SETVI phytotoxicity rating ([5]; Rate 500 g al/ha): 70
- phytotoxicity rating SORHA ([6]; 125 g ai/ha): 0
- SORHA phytotoxicity rating ([6]; Rate 500 g al/ha): 10
- phytotoxicity rating AMBEL ([7]; 125 g ai/ha): 40
- AMBEL phytotoxicity rating ([7]; Rate 500 g al/ha): 100
- phytotoxicity rating CHEAL ([8]; 125 g ai/ha): 100
- CHEAL phytotoxicity rating ([8]; Rate 500 g al/ha): 100
- phytotoxicity rating DIGSA ([9]; 125 g ai/ha): 0
- DIGSA phytotoxicity rating ([9]; Rate 500 g al/ha): 30
- phytotoxicity rating ABUTH ([10]; 125 g ai/ha): 90
- ABUTH phytotoxicity rating ([10]; Rate 500 g al/ha): 100
- AMARE phytotoxicity rating (0-100) ([11]; 63 g al/ha): 90
- phytotoxicity rating AMARE ([11]; rate 500 g ai/ha, scale 0-100): 100
- CASOB phytotoxicity rating (0-100) ([12]; 63 g al/ha): 0
- phytotoxicity rating CASOB ([12]; rate 500 g ai/ha, scale 0-100): 70
- ECHCG phytotoxicity rating (0-100) ([13]; 63 g al/ha): 0
- phytotoxicity rating ECHCG ([13]; rate 500 g ai/ha, scale 0-100): 0
- IPOHE phytotoxicity rating (0-100) ([14]; 63 g al/ha): 90
- phytotoxicity rating IPOHE ([14]; rate 500 g ai/ha, scale 0-100): 75
- SETVI phytotoxicity rating (0-100) ([15]; 63 g al/ha): 10
- phytotoxicity rating SETVI ([15]; rate 500 g ai/ha, scale 0-100): 30
- SORHA phytotoxicity rating (0-100) ([16]; 63 g al/ha): 0
- phytotoxicity rating SORHA ([16]; rate 500 g ai/ha, scale 0-100): 10
- CHEAL phytotoxicity rating (0-100) ([17]; 63 g al/ha): 85
- phytotoxicity rating CHEAL ([17]; rate 500 g ai/ha, scale 0-100): 95
- DIGSA phytotoxicity rating (0-100) ([18]; 63 g al/ha): 0
- phytotoxicity rating DIGSA ([18]; rate 500 g ai/ha, scale 0-100): 0
- ABUTH phytotoxicity rating (0-100) ([19]; 63 g al/ha): 80
- phytotoxicity rating ABUTH ([19]; rate 500 g ai/ha, scale 0-100): 100
- crop damage rating CORN ([20]; 125 g ai/ha): 0
- CORN crop damage rating ([20]; Rate 500 g al/ha): 0
- crop damage rating RICE ([21]; 125 g ai/ha): 0
- RICE crop damage rating ([21]; Rate 500 g al/ha): 0
- CORN crop damage rating (0-100) ([22]; 63 g al/ha): 0
- crop damage rating CORN ([22]; rate 500 g ai/ha, scale 0-100): 5
- RICE crop damage rating (0-100) ([23]; 63 g al/ha): 0
- crop damage rating RICE ([23]; rate 500 g ai/ha, scale 0-100): 0
- AMBEL phytotoxicity rating (0-100) ([24]; 63 g al/ha): 40
- phytotoxicity rating AMBEL ([24]; rate 500 g ai/ha, scale 0-100): 40
- SOY crop damage rating (0-100) ([25]; 63 g al/ha): 10
- crop damage rating SOY ([25]; rate 500 g ai/ha, scale 0-100): 20
- crop damage rating SOY ([26]; 125 g ai/ha): 0
- SOY crop damage rating ([26]; Rate 500 g al/ha): 10

SMILES: O=c1n(CCCF)nnn1-c1cc(Oc2ccc(C(F)(F)F)cn2)c(Cl)cc1Cl [Compound 6-9]
- phytotoxicity rating AMARE ([1]; 125 g ai/ha): 0
- phytotoxicity rating AMARE ([1]; 500 g ai/ha): 0
- phytotoxicity rating CASOB ([2]; 125 g ai/ha): 0
- phytotoxicity rating CASOB ([2]; 500 g ai/ha): 0
- phytotoxicity rating ECHCG ([3]; 125 g ai/ha): 0
- phytotoxicity rating ECHCG ([3]; 500 g ai/ha): 0
- phytotoxicity rating IPOHE ([4]; 125 g ai/ha): 0
- phytotoxicity rating IPOHE ([4]; 500 g ai/ha): 0
- phytotoxicity rating SETVI ([5]; 125 g ai/ha): 0
- phytotoxicity rating SETVI ([5]; 500 g ai/ha): 0
- phytotoxicity rating SORHA ([6]; 125 g ai/ha): 0
- phytotoxicity rating SORHA ([6]; 500 g ai/ha): 0
- phytotoxicity rating AMBEL ([7]; 125 g ai/ha): 0
- phytotoxicity rating AMBEL ([7]; 500 g ai/ha): 0
- phytotoxicity rating CHEAL ([8]; 125 g ai/ha): 0
- phytotoxicity rating CHEAL ([8]; 500 g ai/ha): 0
- phytotoxicity rating DIGSA ([9]; 125 g ai/ha): 0
- phytotoxicity rating DIGSA ([9]; 500 g ai/ha): 0
- phytotoxicity rating ABUTH ([10]; 125 g ai/ha): 0
- phytotoxicity rating ABUTH ([10]; 500 g ai/ha): 0
- AMARE phytotoxicity rating (0-100) ([11]; 63 g al/ha): 0
- AMARE phytotoxicity rating (0-100) ([11]; 250 g al/ha): 0
- CASOB phytotoxicity rating (0-100) ([12]; 63 g al/ha): 0
- CASOB phytotoxicity rating (0-100) ([12]; 250 g al/ha): 0
- ECHCG phytotoxicity rating (0-100) ([13]; 63 g al/ha): 0
- ECHCG phytotoxicity rating (0-100) ([13]; 250 g al/ha): 0
- IPOHE phytotoxicity rating (0-100) ([14]; 63 g al/ha): 0
- IPOHE phytotoxicity rating (0-100) ([14]; 250 g al/ha): 0
- SETVI phytotoxicity rating (0-100) ([15]; 63 g al/ha): 0
- SETVI phytotoxicity rating (0-100) ([15]; 250 g al/ha): 0
- SORHA phytotoxicity rating (0-100) ([16]; 63 g al/ha): 0
- SORHA phytotoxicity rating (0-100) ([16]; 250 g al/ha): 0
- CHEAL phytotoxicity rating (0-100) ([17]; 63 g al/ha): 0
- CHEAL phytotoxicity rating (0-100) ([17]; 250 g al/ha): 0
- DIGSA phytotoxicity rating (0-100) ([18]; 63 g al/ha): 0
- DIGSA phytotoxicity rating (0-100) ([18]; 250 g al/ha): 0
- ABUTH phytotoxicity rating (0-100) ([19]; 63 g al/ha): 0
- ABUTH phytotoxicity rating (0-100) ([19]; 250 g al/ha): 0
- crop damage rating CORN ([20]; 125 g ai/ha): 0
- crop damage rating CORN ([20]; 500 g ai/ha): 0
- crop damage rating RICE ([21]; 125 g ai/ha): 0
- crop damage rating RICE ([21]; 500 g ai/ha): 0
- CORN crop damage rating (0-100) ([22]; 63 g al/ha): 0
- CORN crop damage rating (0-100) ([22]; 250 g al/ha): 0
- RICE crop damage rating (0-100) ([23]; 63 g al/ha): 0
- RICE crop damage rating (0-100) ([23]; 250 g al/ha): 0
- AMBEL phytotoxicity rating (0-100) ([24]; 63 g al/ha): 0
- AMBEL phytotoxicity rating (0-100) ([24]; 250 g al/ha): 0
- SOY crop damage rating (0-100) ([25]; 63 g al/ha): 0
- SOY crop damage rating (0-100) ([25]; 250 g al/ha): 0
- crop damage rating SOY ([26]; 125 g ai/ha): 0
- crop damage rating SOY ([26]; 500 g ai/ha): 0
